The values that follow come from US9340549B2, “Oxazolidinone compounds and derivatives thereof” (priority 2012, dated 2016).

Bounds are passed on as bounds.

For orientation: IC50 means the point on the concentration scale where inhibition reaches its midpoint.

In one test the target is 6×HIS-tankyrase 1 (1091-1325) (Homo sapiens (Human), UniProt O95271). As to the kind of experiment: biochemical. It counts as biochemical. The note with it: 0.25 nM enzyme, 400 nM NAD, 60 minutes at room temperature; read-out: TNKS1 IP IC50.
Chain of 6×HIS-tankyrase 1 (1091-1325) (O95271 1091-1325): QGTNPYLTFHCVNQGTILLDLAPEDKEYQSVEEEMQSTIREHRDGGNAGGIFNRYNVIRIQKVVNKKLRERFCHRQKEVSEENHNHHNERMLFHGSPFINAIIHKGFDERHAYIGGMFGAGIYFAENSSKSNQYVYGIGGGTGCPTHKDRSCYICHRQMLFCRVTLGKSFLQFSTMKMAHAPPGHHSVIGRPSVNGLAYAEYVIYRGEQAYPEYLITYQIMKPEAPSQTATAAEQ
As for `CC1(C)OC(=O)N(c2ccc(C(=O)Nc3cccc4cccnc34)cc2)C1c1ccncc1` (racemic) [Example 124, (+/−)-(R/S)-4-(5,5-dimethyl-2-oxo-4-(pyridin-4-yl)oxazolidin-3-yl)-N-(quinolin-8-yl)benzamide], the IC50 came to 767 nM.
For the molecule `CC1(C)OC(=O)N([C@H]2C[C@H](c3nnc(-c4ccccc4)o3)C2)[C@@H]1c1ccccc1` (single isomer, unassigned) [Example 176], the IC50 was found to be 3130 nM.
On the same count and under the same terms, for `Cc1ccc([C@H]2CC[C@H](N3C(=O)OC(C)(C)[C@@H]3c3ccccc3)CC2)cn1` [Example 135, (S)-5,5-dimethyl-3-((1r,4s)-4-(6-methylpyridin-3-yl)cyclohexyl)-4-phenyloxazolidin-2-one] the value was 1380 nM; for `CC1(C)OC(=O)N([C@H]2CC[C@@H](c3cc4ccncc4[nH]c3=O)CC2)[C@H]1c1ccccc1` [Example 138, (S)-5,5-dimethyl-3-((1s,4r)-4-(2-oxo-1,2-dihydro-1,7-naphthyridin-3-yl)cyclohexyl)-4-phenyloxazolidin-2-one], 1250 nM.

Staying with this test, now noted: […] enzyme, 400 nM NAD, 60 minutes at room temperature; read-out: TNKS1 IP IC50.
`C[C@]1(c2ccccc2)CN([C@H]2CC[C@H](n3c(=O)[nH]c4cc(C#N)ccc43)CC2)C(=O)O1` (single isomer, unassigned) [Example 94]: the IC50 worked out at 270 nM.
On the same count and under the same terms, the result for `Cn1cc2c(C(=O)N[C@H]3CC[C@H](N4C(=O)OC(C)(C)[C@H]4c4ccccc4)CC3)cccc2n1` [Example 144, N-((1R,4r)-4-((R)-5,5-dimethyl-2-oxo-4-phenyloxazolidin-3-yl)cyclohexyl)-2-methyl-2H-indazole-4-carboxamide] reads 222 nM.
Turning to `CC1(C)OC(=O)N([C@H]2CC[C@H](NC(=O)c3coc(-c4ccccc4)n3)CC2)[C@H]1c1ccccc1` [Example 164, N-((1S,4r)-4-((S)-5,5-dimethyl-2-oxo-4-phenyloxazolidin-3-yl)cyclohexyl)-2-phenyloxazole-4-carboxamide], the half-inhibitory concentration (IC50) came to 51.9 nM.
On the same count and under the same terms, the result for `CC1(C)OC(=O)N([C@H]2CC[C@H](NC(=O)c3csc(-c4ccncc4)n3)CC2)[C@H]1c1ccccc1` [Example 167, N-((1S,4r)-4-((S)-5,5-dimethyl-2-oxo-4-phenyloxazolidin-3-yl)cyclohexyl)-2-(pyridin-4-yl)thiazole-4-carboxamide] reads over 46300 nM; that for `CC1(C)OC(=O)N([C@H]2CC[C@H](NC(=O)c3cnn(-c4ccccc4)c3)CC2)[C@H]1c1ccccc1` [Example 161, N-((1S,4r)-4-((S)-5,5-dimethyl-2-oxo-4-phenyloxazolidin-3-yl)cyclohexyl)-1-phenyl-1H-pyrazole-4-carboxamide], 350 nM; that for `CC1(C)OC(=O)N([C@H]2CC[C@H](NC(=O)c3cnn4cccnc34)CC2)[C@H]1c1ccccc1` [Example 146, N-((1S,4r)-4-((S)-5,5-dimethyl-2-oxo-4-phenyloxazolidin-3-yl)cyclohexyl)pyrazolo[1,5-a]pyrimidine-3-carboxamide], 9.18 nM.
Turning to `CC1(C)OC(=O)N([C@H]2CC[C@H](NC(=O)c3ccc[nH]3)CC2)[C@H]1c1ccccc1` [Example 158, N-((1S,4r)-4-((S)-5,5-dimethyl-2-oxo-4-phenyloxazolidin-3-yl)cyclohexyl)-1H-pyrrole-2-carboxamide], the IC50 was found to be 142 nM.
The same measure, in the same setting: for `CC1(C)OC(=O)N([C@H]2CC[C@H](NC(=O)c3ccc4nccn4c3)CC2)[C@H]1c1ccccc1` [Example 159, N-((1S,4r)-4-((S)-5,5-dimethyl-2-oxo-4-phenyloxazolidin-3-yl)cyclohexyl)imidazo[1,2-a]pyridine-6-carboxamide] the value was 1560 nM.
As to `CC1(C)OC(=O)N([C@H]2CC[C@H](NC(=O)c3ccccc3)CC2)[C@H]1c1ccccc1` [Example 141, N-((1S,4r)-4-((S)-5,5-dimethyl-2-oxo-4-phenyloxazolidin-3-yl)cyclohexyl)benzamide], the IC50 stood at 755 nM.
On to `C[C@H]1OC(=O)N([C@H]2CC[C@H](n3c(=O)[nH]c4cc(C#N)ccc43)CC2)[C@H]1c1ccccc1` [Example 178, 1-((1R,4s)-4-((4S,5R)-5-methyl-2-oxo-4-phenyloxazolidin-3-yl)cyclohexyl)-2-oxo-2,3-dihydro-1H-benzo[d]imidazole-5-carbonitrile], for which the concentration for half-maximal inhibition (IC50) came out at 0.375 nM.
Same read-out and setting: the result for `CC1(C)OC(=O)N([C@H]2CC[C@H](NC(=O)c3cnc4ccccc4c3)CC2)[C@@H]1c1ccccc1` [Example 155, N-((1R,4r)-4-((R)-5,5-dimethyl-2-oxo-4-phenyloxazolidin-3-yl)cyclohexyl)quinoline-3-carboxamide] reads 548 nM.
Regarding `CC1(C)OC(=O)N(c2ccc(C(=O)Nc3cnccc3O)cc2)[C@H]1c1ccccc1` [Example 21, (S)-4-(5,5-dimethyl-2-oxo-4-phenyloxazolidin-3-yl)-N-(4-hydroxypyridin-3-yl)benzamide], the 50% inhibitory concentration (IC50) was determined as 1340 nM.
On the same count and under the same terms, for `CC1(C)OC(=O)N([C@H]2CC[C@H](n3ncc4cc(C#N)ccc43)CC2)[C@@H]1c1ccccc1` [Example 180, 1-((1R,4r)-4-((R)-5,5-dimethyl-2-oxo-4-phenyloxazolidin-3-yl)cyclohexyl)-1H-indazole-5-carbonitrile] the value was 915 nM; for `CC1(C)OC(=O)N([C@H]2CC[C@H](NC(=O)c3nc4ccccc4[nH]3)CC2)[C@H]1c1ccccc1` [Example 157, N-((1S,4r)-4-((S)-5,5-dimethyl-2-oxo-4-phenyloxazolidin-3-yl)cyclohexyl)-1H-benzo[d]imidazole-2-carboxamide], 76.8 nM; for `CC1(C)OC(=O)N(C2CC(c3nnc(-c4ccccc4)o3)C2)[C@@H]1c1ccccc1` (mixture of isomers) [Example 175, Mixture of (R)-5,5-dimethyl-4-phenyl-3-((1r,3R)-3-(5-phenyl-1,3,4-oxadiazol-2-yl)cyclobutyl)oxazolidin-2-one compound and (S)-5,5-dimethyl-4-phenyl-3-((1r,3S)-3-(5-phenyl-1,3,4-oxadiazol-2-yl)cyclobutyl)oxazolidin-2-one (1:1)], 1470 nM.
`CC1(C)OC(=O)N([C@H]2CC[C@H](NC(=O)c3cn4ccccc4n3)CC2)[C@@H]1c1ccccc1` [Example 162, N-((1R,4r)-4-((R)-5,5-dimethyl-2-oxo-4-phenyloxazolidin-3-yl)cyclohexyl)imidazo[1,2-a]pyridine-2-carboxamide]: the IC50 came out at 101 nM.
`CC1(C)OC(=O)N([C@H]2CC[C@H](NC(=O)c3cc4ccncc4[nH]3)CC2)[C@H]1c1ccccc1` [Example 149, N-((1S,4r)-4-((S)-5,5-dimethyl-2-oxo-4-phenyloxazolidin-3-yl)cyclohexyl)-1H-pyrrolo[2,3-c]pyridine-2-carboxamide]: the half-inhibitory concentration (IC50) turned out to be 34 nM.
On to `CC1(C)OC(=O)N([C@H]2CC[C@H](c3cnc4cc[nH]c4c3)CC2)[C@H]1c1ccccc1` [Example 171, (S)-3-((1r,4S)-4-(1H-pyrrolo[3,2-b]pyridin-6-yl)cyclohexyl)-5,5-dimethyl-4-phenyloxazolidin-2-one], for which the IC50 turned out to be 19 nM.
For `CC1(C)OC(=O)N([C@H]2CC[C@H](NC(=O)c3nccs3)CC2)[C@H]1c1ccccc1` [Example 160, N-((1S,4r)-4-((S)-5,5-dimethyl-2-oxo-4-phenyloxazolidin-3-yl)cyclohexyl)thiazole-2-carboxamide], the IC50 came to 1460 nM.
With `CC1(C)OC(=O)N([C@H]2CC[C@H](NC(=O)c3ccncn3)CC2)[C@H]1c1ccccc1` [Example 165, N-((1S,4r)-4-((S)-5,5-dimethyl-2-oxo-4-phenyloxazolidin-3-yl)cyclohexyl)pyrimidine-4-carboxamide], the IC50 stood at 260 nM.

For the next test, the system named is total β-catenin in SW480 colorectal cells. Briefly: cells. It counts as cell-based. To be noted: Homo sapiens; SW480 cells, 40 to 48 hours, top concentration 10 μM; read-out: SW480-Total β-Catenin IC50 IP. The method, then:
Total β-Catenin MSD 96-Well Plate Assay for SW480 Cells
SW480 colorectal cells were seeded at a density of 10,000/well in CellBIND 96-well plates (Corning catalog no. 3300) in 60 μL of normal growth medium (MEM alpha supplemented with 10% heat inactivated FBS, GlutaMAX, pyruvate, and 10 mM HEPES).
A 10-point, 3-fold dilution series for each TNKS inhibitor was constructed in a 96-well “stock” plate. […] The plates were incubated at 37° C. for 40 to 48 hours. The media was removed from the CellBIND plate via plate inversion and gentle shaking and the inverted plate was touched to a paper towel and immediately placed on ice. […] Plates containing cell lysates were sealed and shaken for one hour at 4° C. and then quickly frozen in a −80° C. for approximately 15 to 30 minutes followed by gradually thawing at 4° C. Finally, lysate containing plates were centrifuged @1000×g (2073 rpm) for 10 minutes at 4° C.
The sealed MSD plate was incubated overnight in a cold room with gentle shaking. The MSD plate was then blocked with 150 μL of Blocker “A” per well and incubated overnight at 4° C. with vigorous shaking. The blocked MSD plate was washed 4 times with 150 μL/well TBS-T wash buffer (150 mM NaCl, 50 mM Tris, pH 7.5, 0.02% Tween-20). Cell lysates (75 μL) were transferred to prepared MSD plates and incubated at 4° C. ON with gentle shaking. […] The detection antibody was incubated for 1 hour at room temperature with vigorous shaking after which plates were washed 3 times with 150 μL/well TBS-T wash buffer. Plates were processed for analysis by the addition of 150 μL/well MSD Read 4× Buffer T with surfactant (catalog no. R92TC-2; diluted 1:3 in deionized water) and were read on the SECTOR Imager 6000.
For the molecule `C[C@]1(c2ccccc2)CN([C@H]2CC[C@H](n3c(=O)[nH]c4cc(C#N)ccc43)CC2)C(=O)O1` (single isomer, unassigned) [Example 94], the IC50 turned out to be 3010 nM.
As for `CC1(C)OC(=O)N(c2ccc(C(=O)Nc3cccc4cccnc34)cc2)C1c1ccncc1` (racemic) [Example 124, (+/−)-(R/S)-4-(5,5-dimethyl-2-oxo-4-(pyridin-4-yl)oxazolidin-3-yl)-N-(quinolin-8-yl)benzamide], the IC50 stood at 1500 nM.
Consider `CC1(C)OC(=O)N([C@H]2CC[C@H](n3c(=O)[nH]c4cccnc43)CC2)[C@@H]1c1ccccc1` [Example 38, (R)-5,5-dimethyl-3-((1r,4R)-4-(2-oxo-1H-imidazo[4,5-b]pyridin-3(2H)-yl)cyclohexyl)-4-phenyloxazolidin-2-one], for which the half-inhibitory concentration (IC50) turned out to be 4740 nM.
In the case of `CC1(C)OC(=O)N([C@H]2CC[C@H](n3c(=O)[nH]c4cc(C#N)c(F)cc43)CC2)[C@H]1c1ccccc1` [Example 103, 1-((1S,4r)-4-((S)-5,5-dimethyl-2-oxo-4-phenyloxazolidin-3-yl)cyclohexyl)-6-fluoro-2-oxo-2,3-dihydro-1H-benzo[d]imidazole-5-carbonitrile], the IC50 stood at 67.2 nM.
In the case of `CC1(C)OC(=O)N([C@H]2CC[C@H](n3c(=O)n(CC(F)F)c4cnccc43)CC2)[C@H]1c1ccccc1` [Example 39, (S)-3-((1r,4S)-4-(3-(2,2-difluoroethyl)-2-oxo-2,3-dihydro-1H-imidazo[4,5-c]pyridin-1-yl)cyclohexyl)-5,5-dimethyl-4-phenyloxazolidin-2-one], the IC50 is 6750 nM.
